Tests used:
[1] = tested on: hiPSC-derived enterocytes
Caco-2 cells [2] = assay: Transport across Caco-2 cell monolayer (literature); assay type: in vitro ADME, human; conditions: corresponds to the literature value
Caco-2 cells [3] = conditions: cited from earlier work
P-gp = P-gp (Homo sapiens, UniProt P08183)
CYP3A4 = CYP3A4 (Homo sapiens, UniProt P08684); assay: CYP metabolism assay (midazolam hydroxylation, LC-MS/MS) in hiPS-derived enterocytes; conditions: day 21 of differentiation, 120 min incubation
CYP3A4 expression = assay: CYP3A4 mRNA expression in hiPSC-derived enterocytes by real time PCR; assay type: cell-based, human; conditions: day 21 of differentiation
Experimental: For intestine differentiation, the day 10 intestinal precursor cell stock was freeze thawed, and plated onto a rehydrated vitrigel membrane (CVM) 24-well insert (ad-MED Vitrigel™ 2, KANTO KAGAKU, culture area: 0.33 cm^2/insert) in M2 medium at a concentration of 1.6×10^5 cells/well. Y-27632 (WAKO: 251-00514) was added to the medium upon plating for the first 2 days. The cells were cultured in M2 until day 15. A volume of the medium was 200 μL for an upper layer and 700 μL for a lower layer of the cell culture insert. The medium was changed to M3-1 or M3-2 for days 15 to 21, or up to day 30. The medium was replaced every 2 days with a fresh medium.
M3-1 medium: William's Medium E supplemented with L-glutamine, HCM SingleQuots (containing neither GA1000 nor human EGF) (Lonza, CC-4182), 1% PS (Nacalai), 10 ng/ml recombinant human HGF (PeproTech 100-39), 1 μM dexamethasone (Sigma-Aldrich, D8893), 1.4 μM BIO, and 1 M calcitriol (Sigma-Aldrich, D1530). […]
For a reverse transcription reaction, 2.5 μg of RNA was reverse-transcribed using PrimeScript™ RT Master Mix (Takara, Japan). For real-time PCR analysis, mRNA expression was quantified with SyberGreen on a StepOne Plus (Applied Biosystems, Foster City, Calif.). […] A target mRNA level was expressed as an arbitrary unit, and was determined using the ΔΔ CT method.

Sequence of CYP3A4 (P08684 whole entry): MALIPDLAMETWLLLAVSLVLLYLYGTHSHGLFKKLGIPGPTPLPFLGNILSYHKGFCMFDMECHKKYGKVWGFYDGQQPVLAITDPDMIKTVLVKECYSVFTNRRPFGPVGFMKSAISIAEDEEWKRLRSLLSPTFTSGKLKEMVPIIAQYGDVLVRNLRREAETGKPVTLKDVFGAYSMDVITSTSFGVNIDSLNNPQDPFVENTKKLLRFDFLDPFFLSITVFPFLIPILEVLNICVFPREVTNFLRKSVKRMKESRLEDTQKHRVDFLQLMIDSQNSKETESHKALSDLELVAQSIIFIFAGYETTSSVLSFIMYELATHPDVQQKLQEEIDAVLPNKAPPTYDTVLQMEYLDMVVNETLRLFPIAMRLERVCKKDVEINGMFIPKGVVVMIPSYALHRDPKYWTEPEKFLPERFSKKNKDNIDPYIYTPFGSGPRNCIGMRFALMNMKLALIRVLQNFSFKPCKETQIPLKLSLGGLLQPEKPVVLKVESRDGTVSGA
Sequence of P-gp (P08183 whole entry): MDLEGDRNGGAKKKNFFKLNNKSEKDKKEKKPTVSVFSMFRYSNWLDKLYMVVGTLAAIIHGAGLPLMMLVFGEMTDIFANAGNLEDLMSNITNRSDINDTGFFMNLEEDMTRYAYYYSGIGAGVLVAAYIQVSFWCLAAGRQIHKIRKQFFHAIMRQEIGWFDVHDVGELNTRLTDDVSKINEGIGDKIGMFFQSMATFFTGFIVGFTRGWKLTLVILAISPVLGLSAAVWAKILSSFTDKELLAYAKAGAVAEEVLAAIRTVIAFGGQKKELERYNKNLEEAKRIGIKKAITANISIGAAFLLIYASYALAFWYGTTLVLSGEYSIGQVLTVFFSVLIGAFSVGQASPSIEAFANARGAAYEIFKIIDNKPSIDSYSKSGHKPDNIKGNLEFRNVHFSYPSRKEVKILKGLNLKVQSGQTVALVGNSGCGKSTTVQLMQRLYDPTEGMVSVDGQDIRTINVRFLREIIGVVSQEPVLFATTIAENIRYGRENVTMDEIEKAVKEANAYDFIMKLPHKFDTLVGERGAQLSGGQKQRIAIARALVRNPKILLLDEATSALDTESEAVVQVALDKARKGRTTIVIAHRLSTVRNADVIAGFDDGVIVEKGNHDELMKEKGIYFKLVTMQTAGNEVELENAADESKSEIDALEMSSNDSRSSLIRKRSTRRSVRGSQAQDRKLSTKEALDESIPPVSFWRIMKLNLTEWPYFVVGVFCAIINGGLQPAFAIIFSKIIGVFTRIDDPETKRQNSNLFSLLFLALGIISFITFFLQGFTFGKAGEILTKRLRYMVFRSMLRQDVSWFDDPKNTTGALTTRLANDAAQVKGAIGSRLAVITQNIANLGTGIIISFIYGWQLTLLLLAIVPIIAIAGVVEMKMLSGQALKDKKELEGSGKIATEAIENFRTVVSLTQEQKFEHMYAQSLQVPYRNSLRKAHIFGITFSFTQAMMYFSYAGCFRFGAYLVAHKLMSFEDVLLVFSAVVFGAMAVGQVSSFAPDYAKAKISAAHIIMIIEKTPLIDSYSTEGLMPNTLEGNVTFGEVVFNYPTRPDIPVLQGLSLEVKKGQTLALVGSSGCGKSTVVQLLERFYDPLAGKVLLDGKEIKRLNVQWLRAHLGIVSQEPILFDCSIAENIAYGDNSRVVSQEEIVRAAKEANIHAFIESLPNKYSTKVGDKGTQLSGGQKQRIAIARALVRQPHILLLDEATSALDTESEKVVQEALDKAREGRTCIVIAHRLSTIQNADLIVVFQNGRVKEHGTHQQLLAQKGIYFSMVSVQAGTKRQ

CC(C)NCC(O)COc1cccc2ccccc12 (centres unmarked) [propranolol]
transcellular transport (present result) ([1]; human, 120 min, 0.1 μCi/3 mL, pH 7.4): 48 μL/120 min/well
transcellular transport in the Caco-2 cells, converted (Caco-2 cells [2]): approximately 99.4 μL/120 min/well
transcellular transport in the Caco-2 cells (Caco-2 cells [3]; Artursson 1990): 4.19e-05 cm/s

OC[C@@H](O)[C@@H](O)[C@H](O)[C@H](O)CO [mannitol]
directional transport across a cell monolayer [1]: directional transport of neither propranolol nor mannitol across a cell monolayer was observed
transport clearance across a Caco-2 cell monolayer (paracellular) (Caco-2 cells [3]; Cogburn et al. 1991): 3 %/cm^2/hr

C[C@H]1O[C@@H](O[C@H]2[C@@H](O)C[C@H](O[C@H]3[C@@H](O)C[C@H](O[C@H]4CC[C@@]5(C)[C@H](CC[C@@H]6[C@@H]5C[C@@H](O)[C@]5(C)[C@@H](C7=CC(=O)OC7)CC[C@]65O)C4)O[C@@H]3C)O[C@@H]2C)C[C@H](O)[C@@H]1O [digoxin]
directional B-to-A transport compared with A-to-B transport (P-gp): at a level higher than apical-to-basal transport

Cc1ncc2n1-c1ccc(Cl)cc1C(c1ccccc1F)=NC2 [midazolam]
clearance rate of formation of 1′-OH midazolam (CYP3A4): 0.773 μL/min/mg cellular protein

C=C1/C(=C\C=C2/CCC[C@]3(C)[C@@H]([C@H](C)CCCC(C)(C)O)CC[C@@H]23)C[C@@H](O)C[C@@H]1O [calcitriol]
CYP3A4 expression when calcitriol is removed from M3-2 medium (CYP3A4 expression): minimally expressed CYP3A4

— patent publication US20210340500A1, “METHOD FOR PRODUCING INTESTINAL CELLS FROM PLURIPOTENT STEM CELLS” (TOKYO INSTITUTE OF TECHNOLOGY, priority 2018, published 2021)
